Test results as given in US20230110491A1, “LUCIFERASE-BASED METHODS FOR DETECTING BACTERIAL AND FUNGAL CELLS AND ASSESSING SUSCEPTIBILITY OF BACTERIAL CELLS TO ANTIBIOTICS” (Biosynth AG, priority 2020, published 2023).
≈ marks a conversion by molar mass, not a printed value.

Key:
[1] = test system: Salmonella enteritidis RKI 05/07992; experiment: Coupled enzyme assay using pro-luciferins on solid nutrient agar with luciferase and ATP; type: cell-based; details: solid nutrient agar with luciferase, pro-luciferin and 1 mM ATP; approx. 10 CFU/well; 37° C.
Experimental: (§1) Nutrient agar pH 7.4 (5 g/I peptone, 5 g/I NaCl, 2 g/I yeast extract, 1 g/I meat extract, 15 g/I agar) was autoclaved and cooled to 50° C. […] Next, 40 μM D-luciferin (Biosynth AG) was added from a concentrated stock solution.
(§2) Actively growing cultures (Nutrient Broth, 37° C., OD600 0.08 to 0.33) of Staphylococcus aureus ATCC 29213 and Salmonella enteritidis RKI 05/07992 were then diluted to […] in sterile PBS and inoculated to microplate wells with agar (1 μl per well=approx. 10 CFU/well). 1 μl sterile phosphate buffered saline (PBS) was added to sterile control wells. The surrounding wells were filled with sterile water and the plate was incubated at 37° C. in a luminescence microplate reader. The luminescence was measured every 10 min (kinetic mode).
(§3) (Biosynth AG) and 1 mM ATP.

[2] = test system: Staphylococcus aureus ATCC 29213; experiment: as above; type: cell-based; details: solid nutrient agar with luciferase, pro-luciferin and 1 mM ATP; approx. 10 CFU/well; 37° C.
Experimental: as §1, §2, §3

[3] = test system: Ampicillin resistant (AMP^R) E. coli RKI 66/09 (AmpC); experiment: ATP assay for antibiotic susceptibility testing (luminescence, ATP release); type: cell-based, Escherichia coli
Experimental: (§4) Nutrient broth pH 7.4 (5 g/I peptone, 5 g/I NaCl, 2 g/I yeast extract, 1 g/I meat extract) was autoclaved and cooled to room temperature. […] Next, 0.4 mM D-luciferin (Biosynth AG) and 1 mM MgCl2 was added from concentrated stock solutions. The prepared broth was sterilized by filtration (0.2 μm), incubated for 2.5 h at 30° C. in order to burn-off background and then added to a white microplate (0.198 ml per well).
(§5) Ampicillin was added from a dilution series of a filter-sterilized, concentrated stock solution prepared in sterile ultrapure water (5 μl per well). Sterile water was added to control wells without antibiotic. Wells were inoculated with 5 μl of cell suspensions (OD 0.1, prepared in sterile PBS from agar plate pre-cultures) of either Ampicillin resistant (AMP^R) E. coli RKI 66/09 (AmpC) or Ampicillin sensitive (AMP^S) E. coli ATCC 25922. Initial cell concentration in wells was approximately 2.5×10^6 CFU/ml. The microplate was incubated at 37° C. in a luminescence microplate reader and relative luminescence units (RLU) were measured every 2 min for 8 h. For comparison, optical density (600 nm) was measured for all wells after 15 h incubation at 37° C.

[4] = test system: Ampicillin sensitive (AMP^S) E. coli ATCC 25922; experiment: as above; type: cell-based, Escherichia coli
Experimental: as §4, §5

[5] = test system: Ampicillin resistant (AMP^R) E. coli RKI 66/09 (AmpC); experiment: Optical density (600 nm) after 15 h incubation with ampicillin; type: cell-based, Escherichia coli; details: all tested ampicillin concentrations
Experimental: as §5

[6] = test system: Ampicillin sensitive (AMP^S) E. coli ATCC 25922; experiment: as above; type: cell-based, Escherichia coli
Experimental: as §5

| Structure (SMILES) | incubation time after which luminescence begins to strongly increase [1] | incubation time after which luminescence increases [2] | time course of ATP release ([3]; 1.56-100 μg/ml ampicillin) | dependency of onset time on ampicillin concentration ([3]; onset time = first time point with RLU above 1200, all tested concentrations) | ATP release at non-inhibitory concentration ([4]; 1.56 μg/ml ampicillin) | time after which ATP increase can be detected ([4]; at inhibitory antibiotic concentrations, cell concentrations as low as 2×10^6 CFU/ml) | ATP release compared to the control without antibiotic ([4]; at the MIC or above (6.25, 25, 100 μg/ml)) | dependency of onset time on ampicillin concentration ([4]; onset time = first time point with RLU above 1200) | growth inhibition (optical density after 15 h) [5] | cell growth (optical density after 15 h) ([6]; 10-100 μg/ml ampicillin) | MIC ([6]; Escherichia coli, ATCC25922, OD 600 nm, 15 h, 37° C., read-out: MIC from optical density after 15 h) |
| --- | --- | --- | --- | --- | --- | --- | --- | --- | --- | --- | --- |
| CCCCCCCC(=O)Oc1ccc(COc2ccc3nc(C4=N[C@@H](C(=O)O)CS4)sc3c2)cc1 [D-luciferin-spacer-caprylate] | about 10 hours | about 17 hours | – | – | – | – | – | – | – | – | – |
| CC1(C)S[C@@H]2[C@H](NC(=O)[C@H](N)c3ccccc3)C(=O)N2[C@H]1C(=O)O [ampicillin] | – | – | independent of ampicillin concentration | essentially the same onset time | very high amounts of ATP are released | 30 min | occurs earlier and is increased | inversely correlates with ampicillin concentration | no growth inhibition | lack of cell growth | ~6 µg/mL (≈ 17.2 µM) |
